Laboratory results from patent publication US20040025201A1, “True breeding transgenics from plants heterozygous for transgene insertions” (New Zealand Institute for Crop & Food Research Lim, priority 1995, published 2004).

Key:
Format in all cases: in vivo
[1] = tested on: Brassica napus plants heterozygous for the chlorsulfuron-resistant mutation (wt×30b); experiment: Experiment 5 part (b): back-crossed progeny ((wt×30b)×wt) of sprayed ovule parent
Description: (§1) The heterozygous plants were allowed to self pollinate and resulting seeds harvested at maturity. This next generation was screened for chlorsulfuron resistance as previously described (Conner et al. (1994). Briefly, this involved surface sterilizing the seeds (10-12 minutes in 1% sodium hypochlorite, plus a drop of Tween 20), followed by 2-3 rinses in sterile water, then sowing the seeds in vitro onto the surface of a medium consisting of half strength MS salts at pH 5.8 (Murashige and Skoog Physiologia Plantarum 15:473-497 (1962)) supplemented with 10 ug/liter chlorsulfuron and 6.5 g/liter agar. Seeds were then germinated at 24-26° C. under cool white fluorescent lights (80-100) umol/m2/sec; 16 h light: 8 h darkness daily).
(§2) Seeds generally germinated after 3-4 days and were scored for chlorsulfuron resistance 5-7 days after sowing. Resistant seedlings had long healthy roots (4-6 cm) that penetrated into the gelled medium, with healthy green cotyledons.
(§3) To further explore the underlying reasons accounting for the induced skewed segregation, additional crosses using the 30b mutant were performed. At specified times the plants were sprayed with chlorsulfuron and the progeny evaluated as described in Experiment 1 above.
Part (b). Plants heterozygous for the chlorsulfuron-resistant mutation (wt×30b) were either not sprayed, or sprayed with chlorsulfuron at varying times during development. The back crossed-progeny ((wt×30b)×wt), resulting from pollen from non-sprayed wildtype plants were screened for chlorsulfuron resistance as described in Experiment 1.

[2] = tested on: Brassica napus mutant (19c); experiment: Experiment 2: segregation of chlorsulfuron resistance in selfed progeny of sprayed heterozygous plants
Description: as §1, §2
A further chlorsulfuron-resistant Brassica napus mutant (19c), of independent origin to mutant 30b (Conner et al., Proceedings of the 47th New Zealand Plant Protection Conference, 173-177 (1994)) was subjected to identical experiments described above for mutant 30b.

[3] = tested on: Brassica napus plants heterozygous for the chlorsulfuron-resistant mutation (wt×30b); experiment: Experiment 5 part (d): back-crossed progeny ((wt×30b)×30b) of sprayed female parent; conditions: heterozygous female parent sprayed just prior to bolting
Description: as §1, §2, §3
Part (d). Plants heterozygous for the chlorsulfuron-resistant mutation (wt×30b) were either not sprayed, or sprayed with chlorsulfuron just prior to bolting. […]

[4] = tested on: Transgenic forage brassica plants (Brassica napus cv. Giant), line G/HR10; experiment: Experiment 3: segregation of GUS activity in selfed progeny of sprayed transgenic forage brassica; conditions: sprayed once prior to bolting, 20 g/ha
Description: Plant line used: G/HR10 (Christey and Sinclair, Plant Science: 87 161-169 (1992)). This line contains a single insertion of the T-DNA from pKIWI110 and expresses transgenes conferring kanamycin resistance, β-glucuronidase (GUS) activity, and chlorsulfuron resistance.
Plants of the original transgenic line were cloned in vitro, then transferred to a containment greenhouse. […] The plants were allowed to self-pollinate and the seeds were harvested five months after spraying. The progeny germinated and histochemically screened for GUS activity.

[5] = tested on: Transgenic potato plants (Solanum tuberosum cv. Iwa), line SCI1; experiment: Experiment 4: segregation of GUS activity in selfed progeny of sprayed transgenic potato; conditions: sprayed once three weeks after planting, 20 g/ha
Description: The Solanum tuberosum, subspecies tuberosum, plant line used: SCI1 (Conner et al., Journal of Cellular Biochemistry 13D: 333 (1989)). This line of potato is transformed with the T-DNA from pKIWI100 and expresses transgenes conferring kanamycin resistance, β-glucuronidase (GUS) activity, and chlorsulfuron resistance. The cultivated varieties of potato grown in the United States and Europe are predominantly tetraploid (i.e., four complete sets of chromosomes) (Plaisted, R. L., Potato, Chapter 34:483-494, In Hybridization of Crop Plants, supra; Allard, pg. 6, supra.
Plants of the original transgenic line were vegetatively propagated via tubers which were planted in a containment greenhouse. Soon after sprouting (three weeks after planting) the plants were sprayed once with either water of chlorsulfuron at the equivalent rate of 20 g/ha Plants were self pollinated at flowering and berries harvested 15 weeks after spraying. Seeds were extracted and germinated, and the progeny histochemically screened for GUS activity.

[6] = tested on: Brassica napus (30b) mutant; experiment: Experiment 1: segregation of chlorsulfuron resistance in selfed progeny of sprayed heterozygous plants
Description: A homozygous line of a Brassica napus (30b) mutant, with a single gene conferring sulfonylurea resistance (Conner et al., Proceedings of the 47th New Zealand Plant Protection Conference, 173-177 (1994)), was used in this study. Brassica napus are self-fertile, with about 80% of the seed normally arising from self-pollination, although a greater degree of cross-pollination may occur when insect pollinators are abundant (Downey et al., Rapeseed and Mustard, Chapter 35:495-509, In Hybridization of Crop Plants, supra). B. napus is commonly referred to as canola, rape and oilseed rape.
The 30b mutant line was hybridized to a herbicide-sensitive genotype to generate a seed population heterozygous for sulfonylurea resistance. These heterozygous seeds were sown, repotted into individual pots in a greenhouse, and individuals were randomly divided into 3 populations:
(ii) plants sprayed once with chlorsulfuron (a sulfonylurea herbicide) at a rate of 3 mg/liter until runoff, just as the plants were beginning to bolt (development of flowering stems) (19 plants).
(iii) plants sprayed with chlorsulfuron at a rate of 3 mg./liter until runoff, just as the plants were beginning to bolt, and then every 2 weeks until initiation of plant senescence (18 plants).
as §1, §2

[7] = tested on: Brassica napus plants heterozygous for the chlorsulfuron-resistant mutation (wt×30b); experiment: Experiment 5 part (c): back-crossed progeny (wt×(wt×30b)) of sprayed pollen parent; conditions: pollen parent sprayed just prior to bolting
Description: as §1, §2, §3
Part (c). Plants heterozygous for the chlorsulfuron-resistant mutation (wt×30b) were either not sprayed, or sprayed with chlorsulfuron just prior to bolting. The pollen from these plants was back-crossed to non-sprayed wildtype plants, and the resulting progeny (wt×(wt×30b)) were screened for chlorsulfuron resistance as described in Experiment 1.

[8] = tested on: Brassica napus plants heterozygous for the chlorsulfuron-resistant mutation (wt×30b); experiment: Experiment 5 part (a): self-pollinated seed of heterozygous plants sprayed at varying times
Description: as §1, §2, §3
Part (a). Plants heterozygous for the chlorsulfuron-resistant mutation (wt×30b) were either not sprayed, or sprayed with chlorsulfuron at varying times during development. The self-pollinated seed was harvested, and the germinated seedlings were screened for chlorsulfuron resistance.

[9] = sprayed 2 weeks after pods full size
[10] = sprayed at pods reaching full size
[11] = total of 18 plants repeatedly sprayed
[12] = total of 19 plants sprayed once
[13] = sprayed at seedlings (2-3 leaves)

COc1nc(C)nc(NC(=O)NS(=O)(=O)c2ccccc2Cl)n1 [chlorsulfuron]
Number of herbicide-resistant seedlings [1, 9]: 104 | Number of herbicide-sensitive seedlings [1, 9]: 37 | Number of seeds per pod [1, 9]: 4.3 | Number of herbicide-resistant seedlings [1, 10]: 127 | Number of herbicide-sensitive seedlings [1, 10]: 28 | Number of seeds per pod [1, 10]: 4.0 | Number of herbicide-resistant seedlings ([1]; sprayed just prior to bolting): 134 | Number of herbicide-sensitive seedlings ([1]; sprayed just prior to bolting): 5 | Number of seeds per pod ([1]; sprayed just prior to bolting): 3.4 | Number of herbicide-resistant seedlings ([2]; repeated fortnightly sprays from bolting): 96 | Number of herbicide-resistant seedlings ([2]; sprayed just prior to bolting): 398 | Number of herbicide-sensitive seedlings ([2]; sprayed just prior to bolting): 31 | Number herbicide-sensitive seedlings [3]: 0 | Number of herbicide-resistant seedlings [3]: 111 | GUS-negative progeny ([4]; Population A): 13 | GUS-positive progeny ([4]; Population A): 78 | GUS-negative progeny ([4]; Population B): 16 | GUS-positive progeny ([4]; Population B): 96 | GUS-negative progeny [5]: 12 | GUS-positive progeny [5]: 136 | Resistance of progeny of sprayed heterozygous plants (in words) ([6]; both spray regimes): virtually all the progeny obtained were resistant to chlorsulfuron | Number of herbicide-resistant progeny, Total [6, 11]: 728 | Number of herbicide-sensitive progeny, Total [6, 11]: 2 | Number of herbicide-resistant progeny, Total [6, 12]: 1588 | Number of herbicide-sensitive progeny, Total [6, 12]: 17 | Number of herbicide-resistant seedlings [7]: 381 | Number of herbicide-sensitive seedlings [7]: 112 | Number of seeds per pod [7]: 6.3 | Number of herbicide-resistant seedlings [8, 9]: 184 | Number of herbicide-sensitive seedlings [8, 9]: 26 | Number of seeds per pod [8, 9]: 6.2 | Number of herbicide-resistant seedlings [8, 10]: 160 | Number of herbicide-sensitive seedlings [8, 10]: 16 | Number of seeds per pod [8, 10]: 5.8 | Number of herbicide-resistant seedlings [8, 13]: 440 | Number of herbicide-sensitive seedlings [8, 13]: 11 | Number of seeds per pod [8, 13]: 5.6 | Number of herbicide-resistant seedlings ([8]; sprayed just prior to bolting): 565 | Number of herbicide-sensitive seedlings ([8]; sprayed just prior to bolting): 5 | Number of seeds per pod ([8]; sprayed just prior to bolting): 5.4
